Laboratory results published in patent US20260256133A1, “AN EMULSIFIABLE CONCENTRATE HAVING A (SUBSTITUTED) BENZALDEHYDE-BASED SOLVENT SYSTEM” (BASF SE, priority 2022, published 2026).

How the values were obtained:
Soya plants = assay: Phytotoxicity determination on soya; type: in vivo; details: 200 L/ha of 1% w/w emulsion (EC 90% w/w solvent, 10% w/w emulsifier), after 14 days
Procedure: Soya plants grown under standard greenhouse conditions in the growth stage 13 were treated with aqueous emulsions in a spray cabin. The resulting plant spray dosage represented an application rate of 200 L/ha of 1% w/w emulsion, corresponding to the application of 2 L/ha of the emulsifiable concentrate. […] The experimental period lasted 14 days, during which time the Soya plants were given optimum watering, nutrients, and light.
An assessment of 1 to 10% phytotoxicity is the limit of acceptable plant damage by farmers.

[1] = Water solubility of the solvent (method based on CIPAC MT157.1 and OECD 105); type: physicochemical; details: solvent in water, visual assessment of undissolved solvent
Procedure: The water solubility of the solvent was determined according to a method based on CIPAC MT157.1 and OECD 105 via the visual assessment of undissolved solvent in water after vigorous mixing and standing. Herein, various amounts of solvent and water were mixed with vigorous shaking in a glass-stoppered graduated cylinder or separating funnel, followed by standing for at least 30 min to enable separation. […] This method can be repeated with various amounts of solvent and water to enable the determination of the water-solubility of the solvent.

## COc1ccc(C=O)cc1 [4-anisaldehyde]
Soya plants
  phytotoxicity (visual, scale 0% to 100%): 0%
[1]
  water solubility: 0.20 % w/w

## CCCCCCCCCC(=O)N(C)C [Dimethyl decanamide, dimethyl decanamide]
Soya plants
  phytotoxicity (visual, scale 0% to 100%): 50%

## CCCCC(CC)COC(=O)C(C)O (stereo not shown) [2-Ethyl hexyl lactate, 2-Ethylhexyl Lactate]
Soya plants
  phytotoxicity (visual, scale 0% to 100%): 30%
